# Measurements: ChEMBL document CHEMBL1133620, “Selective cyclooxygenase-2 inhibitors: heteroaryl modified 1,2-diarylimidazoles are potent, orally active antiinflammatory agents” (J Med Chem, 2000)
# Columns and labels:
# [1] = molecular target: Prostaglandin G/H synthase 1 (Homo sapiens, UniProt P23219)
# Rattus norvegicus [2] = species on record: Rattus norvegicus; experiment: animal or person; type: functional
# Rattus norvegicus [3] = species on record: Rattus norvegicus; experiment: animal or person; type: functional; remark: listed apart in the source
# Rattus norvegicus [4] = species on record: Rattus norvegicus; experiment: animal or person; type: functional; remark: listed apart in the source
# Rattus norvegicus [5] = species on record: Rattus norvegicus; details: in vivo, po, 100 mg/kg
# Rattus norvegicus [6] = species on record: Rattus norvegicus; details: in vivo, po, 100 mg/kg; remark: listed apart in the source
# in vivo [7] = details: rat, iv, 10 mg/kg
# Rattus norvegicus [8] = species on record: Rattus norvegicus; experiment: animal or person; details: read-out: Inhibition
# Homo sapiens [9] = species on record: Homo sapiens; experiment: tissue or blood
# Homo sapiens [10] = species on record: Homo sapiens; experiment: tissue or blood; remark: listed apart in the source
# Rattus norvegicus [11] = species on record: Rattus norvegicus; details: in vivo, po, 100 mg/kg; remark: listed apart in the source
# in vivo [12] = details: rat, iv, 2 mg/kg
# Rattus norvegicus [13] = species on record: Rattus norvegicus; details: in vivo, po, 100 mg/kg; remark: listed apart in the source
# Rattus norvegicus [14] = species on record: Rattus norvegicus; details: in vivo, po, 100 mg/kg; remark: listed apart in the source
# in vivo [15] = details: rat, iv, 10 mg/kg; remark: listed apart in the source
# Rattus norvegicus [16] = species on record: Rattus norvegicus; details: in vivo, po, 100 mg/kg; remark: listed apart in the source
# in vivo [17] = details: rat, iv, 10 mg/kg; remark: listed apart in the source
# Rattus norvegicus [18] = species on record: Rattus norvegicus; details: in vivo, po, 16 mg/kg
# Rattus norvegicus [19] = species on record: Rattus norvegicus; details: in vivo, po, 16 mg/kg; remark: listed apart in the source
# [20] = Rattus norvegicus, read-out: ED50
# Sequence of Prostaglandin G/H synthase 1 (P23219 whole entry): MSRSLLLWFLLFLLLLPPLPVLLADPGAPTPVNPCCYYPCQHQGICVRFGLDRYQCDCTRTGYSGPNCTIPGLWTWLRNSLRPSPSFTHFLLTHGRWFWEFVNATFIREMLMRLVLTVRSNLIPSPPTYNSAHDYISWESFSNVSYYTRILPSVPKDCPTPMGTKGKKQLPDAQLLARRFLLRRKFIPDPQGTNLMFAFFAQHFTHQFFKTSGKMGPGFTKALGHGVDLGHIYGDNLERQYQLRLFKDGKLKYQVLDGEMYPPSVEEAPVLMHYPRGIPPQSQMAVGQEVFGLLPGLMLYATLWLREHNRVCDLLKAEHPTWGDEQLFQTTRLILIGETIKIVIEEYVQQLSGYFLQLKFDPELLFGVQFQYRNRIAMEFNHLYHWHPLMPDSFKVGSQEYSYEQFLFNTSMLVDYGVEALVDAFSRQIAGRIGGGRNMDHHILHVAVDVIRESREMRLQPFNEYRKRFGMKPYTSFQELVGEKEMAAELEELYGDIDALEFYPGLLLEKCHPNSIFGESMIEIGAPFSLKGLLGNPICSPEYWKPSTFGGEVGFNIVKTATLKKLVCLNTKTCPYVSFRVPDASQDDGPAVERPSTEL
IC50 [1],SMILES,inhibition in vivo at 2 mg/kg (Rattus norvegicus [8]),other results
> 1000 µM,Cc1cncc(-c2nc(C(F)(F)F)cn2-c2ccc(S(N)(=O)=O)cc2)c1,96%,ED50 (Rattus norvegicus [2]): 32 mg/kg; ED50 (Rattus norvegicus [3]): 0.67 mg/kg; ED50 (Rattus norvegicus [4]; [20]): 7.5 mg/kg; No. of animals with damage (Rattus norvegicus [5]): 0; No. of animals with damage (Rattus norvegicus [6]): 0; half-life (in vivo [7]): 4.96 h
–,NS(=O)(=O)c1ccc(-n2cc(C(F)(F)F)nc2-c2cncc(Br)c2)cc1,26%,–
–,COc1ccc(-c2nc(C(F)(F)F)cn2-c2ccc(S(C)(=O)=O)cc2)cn1,100%,–
–,CS(=O)(=O)c1ccc(-n2cc(C(F)(F)F)nc2-c2nccc3ccccc23)cc1,60%,–
> 1000 µM,CS(=O)(=O)c1ccc(-n2cc(C(F)(F)F)nc2-c2ccccn2)cc1,100%,IC50 (Homo sapiens [9]): > 10 µM; IC50 (Homo sapiens [10]): 0.24 µM
> 1000 µM,NS(=O)(=O)c1ccc(-n2cc(C(F)(F)F)nc2-c2cccnc2)cc1,100%,–
–,Cc1ccc(-c2nc(C(F)(F)F)cn2-c2ccc(S(N)(=O)=O)cc2)cn1,100%,–
84 µM,Cc1ccnc(-c2nc(C(F)(F)F)cn2-c2ccc(S(N)(=O)=O)cc2)c1,75%,–
32 µM,CS(=O)(=O)c1ccc(-n2cc(C(F)(F)F)nc2-c2cc3ccccc3cn2)cc1,–,–
> 1000 µM,Cc1csc(-c2nc(C(F)(F)F)cn2-c2ccc(S(N)(=O)=O)cc2)n1,100%,ED50 (Rattus norvegicus [2]): 18.5 mg/kg; ED50 (Rattus norvegicus [3]): 0.33 mg/kg; ED50 (Rattus norvegicus [4]; [20]): 13.4 mg/kg
–,Cc1nc(-c2nc(C(F)(F)F)cn2-c2ccc(S(N)(=O)=O)cc2)cs1,100%,ED50 (Rattus norvegicus [2]): 14 mg/kg; ED50 (Rattus norvegicus [3]): 0.57 mg/kg; ED50 (Rattus norvegicus [4]; [20]): 13.4 mg/kg; No. of animals with damage (Rattus norvegicus [5]): 0; No. of animals with damage (Rattus norvegicus [11]): 0; half-life (in vivo [12]): 3.4 h
–,Cc1ncccc1-c1nc(C(F)(F)F)cn1-c1ccc(S(N)(=O)=O)cc1,100%,ED50 (Rattus norvegicus [2]): 18 mg/kg; ED50 (Rattus norvegicus [3]): 1 mg/kg; ED50 (Rattus norvegicus [4]; [20]): 6.9 mg/kg; No. of animals with damage (Rattus norvegicus [13]): 0; No. of animals with damage (Rattus norvegicus [14]): 0; half-life (in vivo [15]): 4.85 h
–,Cc1cccc(-c2nc(C(F)(F)F)cn2-c2ccc(S(N)(=O)=O)cc2)n1,100%,ED50 (Rattus norvegicus [2]): 20.3 mg/kg; ED50 (Rattus norvegicus [3]): 0.64 mg/kg; ED50 (Rattus norvegicus [4]; [20]): 8.2 mg/kg; No. of animals with damage (Rattus norvegicus [5]): 0; No. of animals with damage (Rattus norvegicus [6]): 0
> 1000 µM,CS(=O)(=O)c1ccc(-n2cc(C(F)(F)F)nc2-c2cc(Br)cs2)cc1,75%,–
–,CS(=O)(=O)c1ccc(-n2cc(C(F)(F)F)nc2-c2cnc3ccccc3c2)cc1,90%,–
> 100 µM,Cc1cn(-c2ccc(S(C)(=O)=O)cc2)c(-c2cccnc2)n1,–,–
> 1000 µM,CS(=O)(=O)c1ccc(-n2cc(CO)nc2-c2cccnc2)cc1,–,–
> 100 µM,Cc1ncccc1-c1nc(C(F)(F)F)cn1-c1ccc(S(C)(=O)=O)cc1,81%,–
> 1000 µM,Cc1cc(-c2nc(C(F)(F)F)cn2-c2ccc(S(N)(=O)=O)cc2)no1,92%,–
> 1000 µM,Cc1ccsc1-c1nc(C(F)(F)F)cn1-c1ccc(S(C)(=O)=O)cc1,11%,–
> 100 µM,COc1cncc(-c2nc(C(F)(F)F)cn2-c2ccc(S(C)(=O)=O)cc2)c1,–,–
> 100 µM,CS(=O)(=O)c1ccc(-n2cc(C#N)nc2-c2cccnc2)cc1,–,–
> 1000 µM,CS(=O)(=O)c1ccc(-n2cc(C(F)(F)F)nc2-c2cncc(Br)c2)cc1,90%,–

IC50 [1],SMILES,inhibition in vivo at 2 mg/kg (Rattus norvegicus [8]),other results
> 100 µM,CS(=O)(=O)c1ccc(-n2cc(C(F)(F)F)nc2-c2cccc3c2OCO3)cc1,11%,–
> 1000 µM,Cc1ncc(-c2nc(C(F)(F)F)cn2-c2ccc(S(N)(=O)=O)cc2)s1,75%,–
–,Cc1cccc(-c2nc(C(F)(F)F)cn2-c2ccc(S(C)(=O)=O)cc2)n1,92%,–
> 100 µM,Cc1ccncc1-c1nc(C(F)(F)F)cn1-c1ccc(S(C)(=O)=O)cc1,–,–
–,Cc1cccnc1-c1nc(C(F)(F)F)cn1-c1ccc(S(N)(=O)=O)cc1,100%,–
–,NS(=O)(=O)c1ccc(-n2cc(C(F)(F)F)nc2-c2cccs2)cc1,95%,–
–,Cc1ccnc(-c2nc(C(F)(F)F)cn2-c2ccc(S(C)(=O)=O)cc2)c1,84%,–
> 100 µM,NS(=O)(=O)c1ccc(-n2cc(C(F)F)nc2-c2cccnc2)cc1,19%,–
–,Cc1ccc(-c2nc(C(F)(F)F)cn2-c2ccc(S(C)(=O)=O)cc2)nc1,97%,ED50 (Rattus norvegicus [2]): 20 mg/kg; ED50 (Rattus norvegicus [3]): 1 mg/kg
–,Cc1cncc(-c2nc(C(F)(F)F)cn2-c2ccc(S(C)(=O)=O)cc2)c1,75%,–
> 100 µM,CS(=O)(=O)c1ccc(-n2cc(C(F)F)nc2-c2cccnc2)cc1,–,–
–,Cc1cccnc1-c1nc(C(F)(F)F)cn1-c1ccc(S(C)(=O)=O)cc1,100%,ED50 (Rattus norvegicus [3]): 0.3 mg/kg; ED50 (Rattus norvegicus [4]): 35%
–,Cn1cc(-c2nc(C(F)(F)F)cn2-c2ccc(S(C)(=O)=O)cc2)c2ccccc21,0%,–
–,CS(=O)(=O)c1ccc(-n2cc(C(F)(F)F)nc2-c2cccnc2)cc1,100%,ED50 (Rattus norvegicus [2]): 8.2 mg/kg; ED50 (Rattus norvegicus [3]): 0.25 mg/kg; ED50 (Rattus norvegicus [4]; [20]): 5.4 mg/kg; No. of animals with damage (Rattus norvegicus [5]): 0; No. of animals with damage (Rattus norvegicus [16]): 0; half-life (in vivo [17]): 11.6 h; IC50 (Homo sapiens [9]): 41.6 µM; IC50 (Homo sapiens [10]): 0.2 µM
–,Cc1ccc(-c2nc(C(F)(F)F)cn2-c2ccc(S(C)(=O)=O)cc2)cn1,93%,ED50 (Rattus norvegicus [2]): 33 mg/kg; ED50 (Rattus norvegicus [3]): 0.2 mg/kg; ED50 (Rattus norvegicus [4]; [20]): 41 mg/kg
> 100 µM,Cc1ccncc1-c1nc(C(F)(F)F)cn1-c1ccc(S(N)(=O)=O)cc1,–,–
–,Cc1nc(-c2nc(C(F)(F)F)cn2-c2ccc(S(C)(=O)=O)cc2)cs1,73%,–
302 µM,Cc1ccc(-c2nc(C(F)(F)F)cn2-c2ccc(S(N)(=O)=O)cc2)nc1,100%,–
> 100 µM,Cc1nc(-c2nc(C(F)(F)F)cn2-c2ccc(S(C)(=O)=O)cc2)co1,0%,–
–,CS(=O)(=O)c1ccc(-n2cc(C(F)(F)F)nc2-c2cccs2)cc1,24%,–
–,CS(=O)(=O)c1ccc(-n2cc(C(F)(F)F)nc2-c2ccccc2)cc1,–,ED50 (Rattus norvegicus [4]; [20]): 0.15 mg/kg
–,Cc1ccccc1-c1nc(C(F)(F)F)cn1-c1ccc(S(C)(=O)=O)cc1,–,ED50 (Rattus norvegicus [4]; [20]): 18 mg/kg
–,COc1ccc2c(c1)c(CC(=O)O)c(C)n2C(=O)c1ccc(Cl)cc1 [INDOMETHACIN],–,ED50 (Rattus norvegicus [3]): 0.1 mg/kg; No. of animals with damage (Rattus norvegicus [18]): 6; No. of animals with damage (Rattus norvegicus [19]): 6
